The experiment relates to P388 leukemia ip, CD2F1 mice, survival T/C. Put plainly: NCI In Vivo Anticancer Drug Screen. Data for tumor model P388 Leukemia (intraperitoneal) in CD2F1 (CDF1) mice. As to conditions: endpoint: median survival time, higher = longer survival. In a few lines: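 Mice carrying the transplanted tumor received test compound or vehicle. Survival was recorded in each group, and the value is the treated-group measurement divided by that of the vehicle-treated control group.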

[1] abbreviates: dose: 3.0 mg/kg/injection, schedule: Q01DX005 (ip), vehicle: saline with Tween-80.
The mark [2] stands for this setting: dose: 6.0 mg/kg/injection, schedule: Q01DX005 (ip), vehicle: saline with Tween-80.
Where [3] appears, read: dose: 100.0 mg/kg/injection, schedule: Q01DX005 (ip), vehicle: saline with Tween-80.
Where [4] appears, read: dose: 200.0 mg/kg/injection, schedule: Q01DX005 (ip), vehicle: saline with Tween-80.
Where [5] appears, read: dose: 100.0 mg/kg/injection, schedule: Q01DX009 (ip), vehicle: Klucel (hydroxypropylcellulose) (HPC).
The mark [6] stands for this setting: dose: 200.0 mg/kg/injection, schedule: Q01DX009 (ip), vehicle: Klucel (hydroxypropylcellulose) (HPC).
Setting [7] is: dose: 50.0 mg/kg/injection, schedule: Q01DX005 (ip), vehicle: saline with Tween-80.
The mark [8] stands for this setting: dose: 12.5 mg/kg/injection, schedule: Q01DX009 (ip), vehicle: saline.
[9] abbreviates: dose: 25.0 mg/kg/injection, schedule: Q01DX009 (ip), vehicle: saline.
Setting [10] is: dose: 50.0 mg/kg/injection, schedule: Q01DX009 (ip), vehicle: saline with Tween-80.
[11] abbreviates: dose: 50.0 mg/kg/injection, schedule: Q01DX009 (ip), vehicle: saline.

The structures appear in SMILES notation. Values joined by “and” are separate entries in the source; they are usually repeats but may differ in a detail not shown here. Identical values can stand only once. Inconclusive results and toxic doses are left out.

With `Cc1cc(C)c(C#N)c(SCC#CCSc2nc(C)cc(C)c2C#N)n1`, the T/C was 103 % of control (dose: 1.5 mg/kg/injection, schedule: Q01DX005 (ip), vehicle: saline with Tween-80); 103 % of control under setting [1]; 94 % of control under setting [2]; 89 % of control (dose: 6.25 mg/kg/injection, schedule: Q01DX005 (ip), vehicle: saline with Tween-80); 91 % of control under setting [3]; 91 % of control under setting [4].

On to `CCO/C=C1/N=C(c2cc([N+](=O)[O-])cc([N+](=O)[O-])c2C)OC1=O`, for which the T/C was 93 % of control (dose: 60.0 mg/kg/injection, schedule: Q01DX005 (ip), vehicle: saline + Tween-80 + alcohol); 94 % of control (dose: 120.0 mg/kg/injection, schedule: Q01DX005 (ip), vehicle: saline + Tween-80 + alcohol); 88 % of control (dose: 240.0 mg/kg/injection, schedule: Q01DX005 (ip), vehicle: saline + Tween-80 + alcohol).

Consider `CC(C)OC(CCCl)c1ccc(Cl)cc1` (centres undefined), for which the T/C is 109 % of control (dose: 100.0 mg/kg/injection, schedule: Q04DX003 (ip), vehicle: saline with Tween-80) and 100 % of control (dose: 200.0 mg/kg/injection, schedule: Q04DX003 (ip), vehicle: saline with Tween-80).

Turning to `CC(=O)NC(Cc1cc(I)c(OC(C)=O)c(I)c1)C(C)=O` (centres undefined), the T/C (dose: 50.0 mg/kg/injection, schedule: Q01DX009 (ip), vehicle: Klucel (hydroxypropylcellulose) (HPC)) was 101 % of control; the T/C under setting [5] was 100 % of control; the T/C under setting [6] is 98 % of control.

Take `CN1CCC/C1=C\C(=O)c1ccc([N+](=O)[O-])cc1`: the T/C was 107 % of control (dose: 100.0 mg/kg/injection, schedule: Q04DX003 (ip), vehicle: Klucel (hydroxypropylcellulose) (HPC)); 107 % of control (dose: 200.0 mg/kg/injection, schedule: Q04DX003 (ip), vehicle: Klucel (hydroxypropylcellulose) (HPC)); 93 % of control (dose: 400.0 mg/kg/injection, schedule: Q04DX003 (ip), vehicle: Klucel (hydroxypropylcellulose) (HPC)).

As to `O=S(=O)(c1ccc(NC(=S)N/N=C/c2ccccc2O)cc1)N1CCCCC1`, the T/C is 105 % of control (dose: 12.5 mg/kg/injection, schedule: Q01DX009 (ip), vehicle: olive oil, sesame oil, peanut oil); 96 % of control (dose: 25.0 mg/kg/injection, schedule: Q01DX009 (ip), vehicle: olive oil, sesame oil, peanut oil); 96 % of control (dose: 50.0 mg/kg/injection, schedule: Q01DX009 (ip), vehicle: olive oil, sesame oil, peanut oil); 91 % of control (dose: 100.0 mg/kg/injection, schedule: Q01DX009 (ip), vehicle: olive oil, sesame oil, peanut oil); 91 % of control (dose: 200.0 mg/kg/injection, schedule: Q01DX009 (ip), vehicle: olive oil, sesame oil, peanut oil); 97 % of control (dose: 400.0 mg/kg/injection, schedule: Q01DX009 (ip), vehicle: olive oil, sesame oil, peanut oil).

Consider `Cc1c2c(ccc3ccccc32)c[n+]2ccccc12`, for which the T/C was 105 % of control (dose: 6.25 mg/kg/injection, schedule: Q04DX003 (ip), vehicle: other); 109 % of control (dose: 6.25 mg/kg/injection, schedule: Q04DX003 (ip), vehicle: saline); 105 % of control (dose: 12.5 mg/kg/injection, schedule: Q04DX003 (ip), vehicle: other); 109 % of control (dose: 12.5 mg/kg/injection, schedule: Q04DX003 (ip), vehicle: saline).

With `CCCN1C[C@H](CSC)C[C@@H]2c3cccc4[nH]cc(c34)C[C@H]21`, the T/C runs as follows: (dose: 6.25 mg/kg/injection, schedule: Q01DX009 (ip), vehicle: Klucel (hydroxypropylcellulose) (HPC)) 103 % of control; (dose: 12.5 mg/kg/injection, schedule: Q01DX009 (ip), vehicle: Klucel (hydroxypropylcellulose) (HPC)) 101 % of control; (dose: 25.0 mg/kg/injection, schedule: Q01DX009 (ip), vehicle: Klucel (hydroxypropylcellulose) (HPC)) 99 % of control.

In the case of `CCN(CC)CCNc1ccc(CO)c2oc3ccc(O)cc3c(=O)c12`, the T/C under setting [7] was 171 % of control and 189 % of control; the T/C under setting [3] was 214 % of control and 217 % of control.

Turning to `Cc1[nH]c2ccc(N(C)C)cc2c(=O)c1CN(CCO)CCO`, the T/C under setting [7] was 108 % of control, the T/C under setting [3] was 100 % of control and the T/C under setting [4] was 100 % of control.

As for `N#CC(C#N)C1C=C/C(=N\O)C1` (centres undefined), the T/C is, setting by setting: under setting [8], 99 % of control; under setting [9], 101 % of control; under setting [10], 109 % of control; under setting [11], 102 % of control.

On to `O=NNc1ccc(C(=O)O)cn1`, for which the T/C runs as follows: (dose: 3.12 mg/kg/injection, schedule: Q01DX009 (ip), vehicle: saline) 108 % of control; (dose: 6.25 mg/kg/injection, schedule: Q01DX009 (ip), vehicle: saline) 100 % of control; under setting [8], 106 % of control; under setting [9], 97 % of control; under setting [11], 100 % of control; (dose: 100.0 mg/kg/injection, schedule: Q01DX009 (ip), vehicle: saline) 91 % of control. Moreover, the T/C (dose: 200.0 mg/kg/injection, schedule: Q01DX009 (ip), vehicle: saline) is 110 % of control.

Regarding `O=Cc1c(-c2ccc(Cl)cc2)nc2n1CCS2`, the T/C is, setting by setting: (dose: 100.0 mg/kg/injection, schedule: Q04DX002 (ip), vehicle: Klucel (hydroxypropylcellulose) (HPC)) 101 % of control; (dose: 400.0 mg/kg/injection, schedule: Q04DX002 (ip), vehicle: Klucel (hydroxypropylcellulose) (HPC)) 104 % of control.

With `CSC(Cl)=NC(=O)C(=O)N=C(Cl)SC`, the T/C runs as follows: under setting [10], 96 % of control; (dose: 100.0 mg/kg/injection, schedule: Q01DX009 (ip), vehicle: saline with Tween-80) 89 % of control.

For `Cc1ccc(CNc2ccc(C)c(Cl)c2)cc1`, the T/C (dose: 100.0 mg/kg/injection, schedule: Q04DX003 (ip), vehicle: other) was 100 % of control; the T/C (dose: 200.0 mg/kg/injection, schedule: Q04DX003 (ip), vehicle: other) is 100 % of control; the T/C (dose: 400.0 mg/kg/injection, schedule: Q04DX003 (ip), vehicle: other) was 100 % of control.

Consider `C=CCOC(=O)C12CCC(C)(C)CC1C1=CCC3C4(C)CCC(O)C(C)(CO)C4CCC3(C)C1(C)CC2` (centres undefined), for which the T/C was 111 % of control under setting [1]; 114 % of control under setting [2]; 100 % of control (dose: 12.0 mg/kg/injection, schedule: Q01DX005 (ip), vehicle: saline with Tween-80); 92 % of control (dose: 12.5 mg/kg/injection, schedule: Q01DX005 (ip), vehicle: saline with Tween-80).

With `C/C(=N/N=C(N)N)c1cn[nH]c1C`, the T/C (dose: 60.0 mg/kg/injection, schedule: Q01DX005 (ip), vehicle: Klucel (hydroxypropylcellulose) (HPC)) was 107 % of control and the T/C (dose: 120.0 mg/kg/injection, schedule: Q01DX005 (ip), vehicle: Klucel (hydroxypropylcellulose) (HPC)) was 100 % of control.

Take `O=Cc1ncccc1[N+](=O)[O-]`: the T/C (dose: 50.0 mg/kg/injection, schedule: Q01DX009 (ip), vehicle: saline + Tween-80 + alcohol) was 116 % of control and the T/C (dose: 100.0 mg/kg/injection, schedule: Q01DX009 (ip), vehicle: saline + Tween-80 + alcohol) is 115 % of control.

For `NC(=O)C1CCCC12NC(=O)NC2=O` (centres undefined), the T/C was 90 % of control under setting [5]; 90 % of control under setting [6]; 100 % of control (dose: 400.0 mg/kg/injection, schedule: Q01DX009 (ip), vehicle: Klucel (hydroxypropylcellulose) (HPC)).

`O=C1OC(CCc2ccccc2O)c2ccccc21` (centres undefined): the T/C under setting [7] is 89 % of control, the T/C under setting [3] is 99 % of control and the T/C under setting [4] is 93 % of control.

With `Cc1cccc2c(-c3ccccc3)c3cccc[n+]3cc12`, the T/C is 100 % of control and 103 % of control (dose: 0.78 mg/kg/injection, schedule: Q01DX005 (ip), vehicle: Klucel (hydroxypropylcellulose) (HPC)); 108 % of control and 89 % of control (dose: 1.56 mg/kg/injection, schedule: Q01DX005 (ip), vehicle: Klucel (hydroxypropylcellulose) (HPC)); 103 % of control and 97 % of control (dose: 3.12 mg/kg/injection, schedule: Q01DX005 (ip), vehicle: Klucel (hydroxypropylcellulose) (HPC)); 94 % of control (dose: 6.25 mg/kg/injection, schedule: Q01DX005 (ip), vehicle: Klucel (hydroxypropylcellulose) (HPC)).

On to `CN(C)CCCNc1cc(/C=C/c2cccc3ccccc23)nc2ccccc12`, for which the T/C is, setting by setting: under setting [8], 91 % of control; under setting [9], 92 % of control; under setting [11], 92 % of control.

(Values after PubChem BioAssay AID330 (DTP/NCI, 2004).)
